This is an account of results in US20190100534A1, “Cephem Compounds with Latent Reactive Groups” (Gladius Pharmaceuticals, Inc., priority 2017, published 2019).

What all share (format): cell-based
In assay [1] the test system is Pseudomonas aeruginosa (PA). Briefly: MIC determination. The conditions noted are these: Pseudomonas aeruginosa, 18 h, read-out: Minimum Inhibitory Concentrations, PA. The method, then:
(§1) Sterile technique was used throughout these experiments. Suspensions of organisms were removed from storage (−80° C.) and partially thawed. Partially thawed organisms (1 μL) were inoculated into 3 mL sterile LB Broth in a sterile culture tube and capped, then cultured at 37° C. with shaking for 4-5 hours until the optical density at 600 nm (OD600) was greater than 0.1 on a single beam spectrophotometer.
(§2) The concentration of organisms was adjusted to 0.08-0.1 OD600 (0.5 McFarland units) by dilution with sterile cation-adjusted Meuller-Hinton (CAMH) broth. The suspensions were used within 30 minutes of preparation.
(§3) A stock solution was made of each test compound by measuring 6.4 mg of the compound on an analytical balance and dissolving it in DMSO (1 mL) to get a transparent solution. The solutions were stored at −20° C. and thawed prior to use.
(§4) Sterile CAMH broth (200 μL) containing 20 μM Apo-Transferrin was pipetted into the first row of 8 columns of a sterile, round-bottomed, transparent, 96-well microplate using an 8-channel pipette equipped with sterile tips. One hundred μL was pipetted into the wells of the remaining 11 rows.
(§5) With an 8-channel pipette equipped with sterile tips, 100 μL of the first row solution was transferred to the second row and mixed. The process was repeated for the second to third rows and continued through row 11. One hundred μL from row 11 was removed and discarded so that all 12 rows contained 100 μL. Row 12 contained no compound and rows 1-11 contained 64, 32, 16, 8, 4, 2, 1, 0.5, 0.25, 0.125, […] of a given compound.
(§6) Inoculant suspensions (0.5 μL) were added to the 12 wells of each column. The plates were then covered and incubated at 37° C. overnight for 18 hours.
(§7) For each organism the MIC was determined by identifying the transparent well with the lowest test compound concentration.

Assay [2] deals with Pseudomonas aeruginosa PA (RR-1). Briefly: MIC determination. The conditions noted are these: Pseudomonas aeruginosa, 18 h, read-out: Minimum Inhibitory Concentrations, PA (RR-1). The method, then:
as §1, §2, §3, §4, §5, §6, §7

For assay [3], the system named is Pseudomonas aeruginosa PA (RR-2). Briefly: MIC determination. The note with it: Pseudomonas aeruginosa, 18 h, read-out: Minimum Inhibitory Concentrations, PA (RR-2). The protocol: as §1, §2, §3, §4, §5, §6, §7
Assay [4] has as its system Pseudomonas aeruginosa PA (URMC-2). Briefly: MIC determination. The note with it: Pseudomonas aeruginosa, 18 h, read-out: Minimum Inhibitory Concentrations, PA (URMC-2). The protocol:
as §1, §2, §3, §4, §5, §6, §7

The subject of assay [5] is Pseudomonas aeruginosa PA (URMC-3). Briefly: MIC determination. The conditions noted are these: Pseudomonas aeruginosa, 18 h, read-out: Minimum Inhibitory Concentrations, PA (URMC-3). The protocol:
as §1, §2, §3, §4, §5, §6, §7

The subject of assay [6] is Pseudomonas aeruginosa PA-RR-(980151052). Briefly: MIC determination. The note with it: Pseudomonas aeruginosa, 18 h, read-out: Minimum Inhibitory Concentrations, PA-RR-(980151052). The method, then:
as §1, §2, §3, §4, §5, §6, §7

The test system of assay [7] is Pseudomonas aeruginosa PA-RR-(98023895). In words: MIC determination. The note with it: Pseudomonas aeruginosa, 18 h, read-out: Minimum Inhibitory Concentrations, PA-RR-(98023895). The method, then:
as §1, §2, §3, §4, §5, §6, §7

Assay [8] has as its system Pseudomonas aeruginosa PA-RR-(G7294437). Briefly: MIC determination. The conditions noted are these: Pseudomonas aeruginosa, 18 h, read-out: Minimum Inhibitory Concentrations, PA-RR-(G7294437). The method, then:
as §1, §2, §3, §4, §5, §6, §7

Assay [9] deals with Pseudomonas aeruginosa PA-RR-(G7304100). In words: MIC determination. The note with it: Pseudomonas aeruginosa, 18 h, read-out: Minimum Inhibitory Concentrations, PA-RR-(G7304100). The protocol:
as §1, §2, §3, §4, §5, §6, §7

In assay [10] the test system is Pseudomonas aeruginosa PA-RR-(G7305586). Briefly: MIC determination. The conditions noted are these: Pseudomonas aeruginosa, 18 h, read-out: Minimum Inhibitory Concentrations, PA-RR-(G7305586). The method, then: as §1, §2, §3, §4, §5, §6, §7
Assay [11] relates to Pseudomonas aeruginosa PA-RR-(G8062859). In words: MIC determination. The conditions noted are these: Pseudomonas aeruginosa, 18 h, read-out: Minimum Inhibitory Concentrations, PA-RR-(G8062859). The protocol: as §1, §2, §3, §4, §5, §6, §7
Assay [12] deals with Pseudomonas aeruginosa PA-RR-(purple Fre D). In words: MIC determination. The note with it: Pseudomonas aeruginosa, CAMH broth, 20 μM Apo-Transferrin, 37° C., 18 hours, read-out: Minimum Inhibitory Concentrations, PA-RR-(purple Fre D). The protocol:
as §1, §2, §3, §4, §5, §6, §7

The test system of assay [13] is E. coli J53 Alone. In words: MIC determination, isogenic E. coli strains. The method, then:
as §1, §2, §3, §4, §5, §6, §7
(§8) The gene sequence for each beta-lactamase enzyme was synthesized and inserted into the pBC-SK(+) plasmid by GenScript, a commercial service. E. coli J53 was transformed with each plasmid via electroporation and resistant transformants were selected on agar plates containing 50 micrograms/mL ampicillin. The selected transformants were stored at −80 degrees C. in 20% glycerol.

Assay [14] concerns Isogenic E. coli J58 strain carrying DHA-1. In words: MIC determination, isogenic E. coli strains. The conditions noted are these: Escherichia coli, 18 h, read-out: Mimimum Inhibitory Concentrations, DHA-1. The protocol: as §1, §2, §3, §4, §5, §6, §7, §8
In assay [15] the test system is Isogenic E. coli J58 strain carrying TEM-26. In words: MIC determination, isogenic E. coli strains. The note with it: Escherichia coli, 18 h, read-out: Mimimum Inhibitory Concentrations, TEM-26. The protocol:
as §1, §2, §3, §4, §5, §6, §7
TEM-26 (Group 2be beta-lactamase, hydrolyzes extended spectrum cephalosporins and monobactams), [25];
as §8

Assay [16] has as its system Isogenic E. coli J58 strain carrying SHV-1. Briefly: MIC determination, isogenic E. coli strains. The note with it: Escherichia coli, 18 h, read-out: Mimimum Inhibitory Concentrations, SHV-1. The method, then:
as §1, §2, §3, §4, §5, §6, §7
SHV-1 (Class A, Group 2b beta-lactamase, hydrolyzes penicillins and early cephalosporins);
as §8

Assay [17] deals with Isogenic E. coli J58 strain carrying CTX-M-14. In words: MIC determination, isogenic E. coli strains. The conditions noted are these: Escherichia coli, 18 h, read-out: Mimimum Inhibitory Concentrations, CTX-M-14. The protocol:
as §1, §2, §3, §4, §5, §6, §7
(§9) CTX-M-14 and CTX-M-15 (Class A, Group 2be beta-lactamases, hydrolyzes extended spectrum cephalosporins and monobactams);
as §8

Assay [18] has as its system Isogenic E. coli J58 strain carrying CTX-M-15. In words: MIC determination, isogenic E. coli strains. The note with it: Escherichia coli, 18 h, read-out: Mimimum Inhibitory Concentrations, CTX-M-15. The method, then:
as §1, §2, §3, §4, §5, §6, §7, §9, §8

For assay [19], the system named is Isogenic E. coli J58 strain carrying KPC-2. Briefly: MIC determination, isogenic E. coli strains. The conditions noted are these: Escherichia coli, 18 h, read-out: Mimimum Inhibitory Concentrations, KPC-2. The method, then:
as §1, §2, §3, §4, §5, §6, §7
(§10) KPC-2 and KPC-3 (Class A, Group 2f, carbapenemases);
as §8

Assay [20] relates to Isogenic E. coli J58 strain carrying KPC-3. In words: MIC determination, isogenic E. coli strains. The note with it: Escherichia coli, 18 h, read-out: Mimimum Inhibitory Concentrations, KPC-3. The method, then: as §1, §2, §3, §4, §5, §6, §7, §10, §8
Assay [21] concerns Isogenic E. coli J58 strain carrying NDM-1. Briefly: MIC determination, isogenic E. coli strains. The conditions noted are these: Escherichia coli, 18 h, read-out: Mimimum Inhibitory Concentrations, NDM-1. The method, then: as §1, §2, §3, §4, §5, §6, §7
NDM-1 (Group 3a carbapenemase, broad spectrum divalent Zn^++ metallo-Beta-Lactamase);
as §8

For assay [22], the system named is Isogenic E. coli J58 strain carrying VIM-2. Briefly: MIC determination, isogenic E. coli strains. The conditions noted are these: Escherichia coli, 18 h, read-out: Mimimum Inhibitory Concentrations, VIM-2. The protocol: as §1, §2, §3, §4, §5, §6, §7
VIM-2 (Group 3a carbapenemase, metallo-beta-lactamase); and
as §8

The subject of assay [23] is Isogenic E. coli J58 strain carrying IMP-1. Briefly: MIC determination, isogenic E. coli strains. The conditions noted are these: Escherichia coli, 18 h, read-out: Mimimum Inhibitory Concentrations, IMP-1. The method, then: as §1, §2, §3, §4, §5, §6, §7
IMP-1 (Group 3a carbapenemase, metallo-beta-Lactamase).
as §8

Turning to `CC[N+]1(Cc2ccc(C=CC3=C(C(=O)O)N4C(=O)[C@@H](NC(=O)/C(=N\OC(C)(C)C(=O)O)c5csc(N)n5)[C@H]4SC3)cc2)CCc2cc(O)c(O)cc2C1` (mixture of isomers) [Compound 423, 2-(4-((E/Z)-2-((6R,7R)-7-((Z)-2-(2-aminothiazol-4-yl)-2-(((2-carboxypropan-2-yl)oxy)imino)acetamido)-2-carboxy-8-oxo-5-thia-1-azabicyclo[4.2.0]oct-2-en-3-yl)vinyl)benzyl)-2-ethyl-6,7-dihydroxy-1,2,3,4-tetrahydroisoquinolin-2-ium], the MIC was 2 µg/mL in [1]; 2 µg/mL in [2]; 2 µg/mL in assay [3]; 2 µg/mL in assay [4]; not above 0.06 µg/mL in assay [5]; 2 µg/mL in assay [6]. Moreover, the MIC in assay [7] is 8 µg/mL; in [8], 0.5 µg/mL; in assay [9] it was not above 0.06 µg/mL; in assay [10], 8 µg/mL; in assay [11], 2 µg/mL; in [12] it was 1 µg/mL. In addition, the MIC is 0.25 µg/mL in assay [13] (Escherichia coli, J53ALONE, 18 h, read-out: Mimimum Inhibitory Concentrations, J53 Alone); 1 µg/mL in assay [14]; 2 µg/mL in [15]; 2 µg/mL in assay [16]; 2 µg/mL in assay [17]; 2 µg/mL in assay [18]. For the same compound, the MIC is 8 µg/mL in assay [19]; 4 µg/mL in [20]; more than 64 µg/mL in assay [21]; 0.5 µg/mL in assay [22]; 32 µg/mL in assay [23]. In addition, the “Mimimum Inhibitory Concentrations, J53 Alone” value in [13] (J53 Alone, Table 4-2, CAMH broth, 20 μM Apo-Transferrin, 37° C., 18 hours) was 0.25 microgram/mL.
